Legend:
MOZ-KAT6A [1] = target: T1, MOZ-KAT6A (Homo sapiens, UniProt Q92794, A567V); assay: Revised Acetyltransferase Biochemical Assay, KAT6A; settings: Table 8 (MOZ-KAT6A), 1 μM Acetyl coenzyme A
T1 construct: encoding amino acid residues 507 to 778 (Uniprot Q92794-1) of human KAT6A; made in house; host or cells: E. coli BL21 DE3

MOZ-KAT6A [2] = target: T1, MOZ-KAT6A; assay: Acetyltransferase biochemical assay (AlphaScreen), KAT6A; settings: Table 2 (MOZ-KAT6A); 10 μM Acetyl coenzyme A, histone H3.1, 5 nM enzyme
TIP60-KAT5 [3] = target: T2, TIP60-KAT5 (Homo sapiens, UniProt Q92993); assay: Revised Acetyltransferase Biochemical Assay, KAT5; settings: 10 nM KAT5, 1 μM AcCoA, 100 nM histone H4, 90 min
T2 construct: encoding amino acid residues 2 to 461 (Uniprot Q92993-2) of human KAT5 isoform; made in house; host or cells: E. coli BL21 DE3

TIP60-KAT5 [4] = target: T2, TIP60-KAT5; assay: Acetyltransferase biochemical assay (AlphaScreen), KAT5; settings: Table 1 (TIP60-KAT5); 0.4 μM Acetyl coenzyme A, histone H4, 10 nM enzyme
HBO-KAT7 [5] = target: T3, HBO-KAT7 (Homo sapiens, UniProt O95251); assay: Acetyltransferase biochemical assay (AlphaScreen), KAT7; settings: Table 3 (HBO-KAT7); 0.4 μM Acetyl coenzyme A, histone H3.1, 40 nM enzyme
T3 construct: encoding amino acid residues 325 to 611 (Uniprot 095251-1) of human KAT7; made in house; host or cells: E. coli BL21 DE3 RIL

HBO-KAT7 [6] = target: T3, HBO-KAT7; assay: Revised Acetyltransferase Biochemical Assay, KAT7; settings: Table 9 (HBO-KAT7), 1 μM Acetyl coenzyme A

T2 sequence (Q92993 2-461 isoform Q92993-2): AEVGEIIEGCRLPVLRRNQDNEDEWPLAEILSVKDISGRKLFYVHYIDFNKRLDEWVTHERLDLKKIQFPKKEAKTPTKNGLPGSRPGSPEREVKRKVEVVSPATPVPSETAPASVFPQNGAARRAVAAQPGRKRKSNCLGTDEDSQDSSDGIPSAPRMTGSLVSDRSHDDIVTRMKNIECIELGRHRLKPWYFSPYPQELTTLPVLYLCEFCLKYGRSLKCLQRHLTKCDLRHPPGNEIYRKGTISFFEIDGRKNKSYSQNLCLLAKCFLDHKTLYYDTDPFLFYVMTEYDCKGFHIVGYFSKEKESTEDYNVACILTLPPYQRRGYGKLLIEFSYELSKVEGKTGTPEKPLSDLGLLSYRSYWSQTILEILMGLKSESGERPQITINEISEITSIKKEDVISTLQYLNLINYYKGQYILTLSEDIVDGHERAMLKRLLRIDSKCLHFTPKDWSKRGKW
T1 sequence (Q92794 507-778 A567V limits assumed): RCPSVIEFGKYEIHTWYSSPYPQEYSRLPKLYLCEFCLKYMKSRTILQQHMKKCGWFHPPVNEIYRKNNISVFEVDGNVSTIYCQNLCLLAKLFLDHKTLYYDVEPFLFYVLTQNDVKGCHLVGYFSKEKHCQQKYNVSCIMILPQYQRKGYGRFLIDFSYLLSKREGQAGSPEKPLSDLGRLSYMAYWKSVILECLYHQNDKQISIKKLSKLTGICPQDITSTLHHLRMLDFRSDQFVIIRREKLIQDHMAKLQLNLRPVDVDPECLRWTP
T3 sequence (O95251 with tags, fused parts or gaps): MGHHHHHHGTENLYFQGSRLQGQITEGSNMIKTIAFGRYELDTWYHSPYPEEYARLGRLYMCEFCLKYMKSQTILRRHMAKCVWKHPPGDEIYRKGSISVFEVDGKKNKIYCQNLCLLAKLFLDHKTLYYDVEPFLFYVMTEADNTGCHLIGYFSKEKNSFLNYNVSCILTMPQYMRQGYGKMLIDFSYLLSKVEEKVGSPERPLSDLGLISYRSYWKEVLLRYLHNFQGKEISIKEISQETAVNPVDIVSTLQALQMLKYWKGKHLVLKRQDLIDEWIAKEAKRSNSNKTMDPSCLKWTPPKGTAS

| IC50 (MOZ-KAT6A [1]) [µM] | IC50 (MOZ-KAT6A [2]) [µM] | IC50 (TIP60-KAT5 [3]) [µM] | IC50 (TIP60-KAT5 [4]) [µM] | IC50 (HBO-KAT7 [5]) [µM] | IC50 (HBO-KAT7 [6]) [µM] | Structure (SMILES) |
| --- | --- | --- | --- | --- | --- | --- |
| 0.649 | 3.73 | 7.46 | 18.9 | – | – | O=C(NCC(c1ccccc1)c1ncco1)C1=Nc2ccc(F)cc2S(=O)(=O)N1 (single isomer, unassigned) [Example 145] |
| – | 5.39 | – | 45.7 | – | – | O=C(NCC(c1ccccc1)c1ncco1)C1=Nc2ccc(O)cc2S(=O)(=O)N1 (single isomer, unassigned) [Example 148] |
| – | 0.102 | – | 4.88 | – | – | O=C(NCC(c1ccccc1)c1ncco1)C1=Nc2ccc(O)cc2S(=O)(=O)N1 (single isomer, unassigned) [Example 149] |
| – | 47.5 | – | 52.8 | – | – | O=C(NCC(c1ccccc1)c1ncc[nH]1)C1=Nc2ccccc2S(=O)(=O)N1 (single isomer, unassigned) [Example 152] |
| – | 0.0421 | – | 12.4 | 20.1 | – | CNC(=O)Cn1cc(-c2ccc3c(c2)S(=O)(=O)NC(C(=O)NCC(c2ccccc2)c2ncco2)=N3)cn1 (stereo not drawn) [Example 9, 7-(1-(2-(Methylamino)-2-oxoethyl)-1H-pyrazol-4-yl)-N-(2-(oxazol-2-yl)-2-phenylethyl)-2H-benzo[e][1,2,4]thiadiazine-3-carboxamide 1,1-dioxide] |
| – | 0.0906 | – | 79.7 | – | – | O=C(NCC(c1ccccc1)c1ncco1)C1=Nc2ccc(-c3cnn(CCO)c3)cc2S(=O)(=O)N1 (stereo not drawn) [Example 10, 7-(1-(2-Hydroxyethyl)-1H-pyrazol-4-yl)-N-(2-(oxazol-2-yl)-2-phenylethyl)-2H-benzo[e][1,2,4]thiadiazine-3-carboxamide 1,1-dioxide] |
| – | 1.81 | – | 11.8 | 2.53 | – | Nc1ccc2c(c1)S(=O)(=O)NC(C(=O)NCC(c1ccccc1)c1ncco1)=N2 (stereo not drawn) [Example 11, 7-Amino-N-(2-(oxazol-2-yl)-2-phenylethyl)-2H-benzo[e][1,2,4]thiadiazine-3-carboxamide 1,1-dioxide] |
| 0.682 | 0.211 | 5.55 | 1.4 | – | 0.874 | O=C(NCC(c1ccccc1)c1ccccc1)C1=Nc2ccc(Br)cc2S(=O)(=O)N1 [Example 15, 7-Bromo-N-(2,2-diphenylethyl)-2H-benzo[e][1,2,4]thiadiazine-3-carboxamide 1,1-dioxide] |
| – | 1.37 | – | 23.8 | – | – | Cc1ccc2c(c1)S(=O)(=O)NC(C(=O)NCC(c1ccccc1)c1ccccc1)=N2 [Example 16, N-(2,2-Diphenylethyl)-7-methyl-2H-benzo[e][1,2,4]thiadiazine-3-carboxamide 1,1-dioxide] |
| – | 3.33 | – | 51 | – | – | O=C(NCC(c1ccccc1)c1ccccc1)C1=Nc2ccc(C3CC3)cc2S(=O)(=O)N1 [Example 17, 7-Cyclopropyl-N-(2,2-diphenylethyl)-2H-benzo[e][1,2,4]thiadiazine-3-carboxamide 1,1-dioxide] |
| – | 1.98 | – | 72.4 | – | – | O=C(NCC(c1ccccc1)c1ccccc1)C1=Nc2ccc(-c3ccn[nH]3)cc2S(=O)(=O)N1 [Example 22, N-(2,2-diphenylethyl)-7-(1H-pyrazol-5-yl)-2H-benzo[e][1,2,4]thiadiazine-3-carboxamide 1,1-dioxide] |
| 0.12 | 0.056 | 1.73 | 3.73 | – | 2.88 | COC(=O)c1ccc2c(c1)S(=O)(=O)NC(C(=O)NCC(c1ccccc1)c1ncco1)=N2 (stereo not drawn) [Example 23, Methyl 3-((2-(oxazol-2-yl)-2-phenylethyl)carbamoyl)-2H-benzo[e][1,2,4]thiadiazine-7-carboxylate 1,1-dioxide] |
| – | 0.0195 | – | 1.29 | – | – | NC(=O)c1ccc2c(c1)S(=O)(=O)NC(C(=O)NCC(c1ccccc1)c1ncco1)=N2 (stereo not drawn) [Example 27, N^3-(2-(Oxazol-2-yl)-2-phenylethyl)-2H-benzo[e][1,2,4]thiadiazine-3,7-dicarboxamide 1,1-dioxide] |
| – | 4.42 | – | 63.5 | 15.7 | – | O=C(NCCc1ccccc1Br)C1=Nc2ccccc2S(=O)(=O)N1 [Example 28, N-(2-Bromophenethyl)-2H-benzo[e][1,2,4]thiadiazine-3-carboxamide 1,1-dioxide] |
| – | 0.771 | – | 44 | – | – | O=C(NCC(c1ccccc1)c1ccccc1)C1=Nc2ccc(-c3cccnc3)cc2S(=O)(=O)N1 [Example 37, N-(2,2-diphenylethyl)-7-(pyridin-3-yl)-2H-benzo[e][1,2,4]thiadiazine-3-carboxamide 1,1-dioxide] |
| – | 35.2 | – | 109 | – | – | CNC(=O)C(CNC(=O)C1=Nc2ccccc2S(=O)(=O)N1)c1ccccc1 (stereo not drawn) [Example 45, N-(3-(methylamino)-3-oxo-2-phenylpropyl)-2H-benzo[e][1,2,4]thiadiazine-3-carboxamide 1,1-dioxide] |
| 1.68 | 7.67 | > 125 | > 125 | – | 3.13 | CCOC(=O)NC(CNC(=O)C1=Nc2ccccc2S(=O)(=O)N1)c1ccccc1 (stereo not drawn) [Example 49, Ethyl (2-(1,1-dioxido-2H-benzo[e][1,2,4]thiadiazine-3-carboxamido)-1-phenylethyl)carbamate] |
| – | 4.82 | – | 25.3 | – | – | O=C(NCC(OC(=O)N1CCC1)c1ccccc1)C1=Nc2ccccc2S(=O)(=O)N1 (stereo not drawn) [Example 51, 2-(1,1-dioxido-2H-benzo[e][1,2,4]thiadiazine-3-carboxamido)-1-phenylethyl azetidine-1-carboxylate] |
| – | 36.1 | – | – | – | – | O=C(NCC(c1ccccc1)n1ccnn1)C1=Nc2ccccc2S(=O)(=O)N1 (stereo not drawn) [Example 52, N-(2-phenyl-2-(1H-1,2,3-triazol-1-yl)ethyl)-2H-benzo[e][1,2,4]thiadiazine-3-carboxamide 1,1-dioxide] |
| – | 0.273 | – | 19.8 | – | – | Cc1coc(C(CNC(=O)C2=Nc3ccccc3S(=O)(=O)N2)c2ccccc2)n1 (stereo not drawn) [Example 53, N-(2-(4-methyloxazol-2-yl)-2-phenylethyl)-2H-benzo[e][1,2,4]thiadiazine-3-carboxamide 1,1-dioxide] |

| IC50 (MOZ-KAT6A [1]) [µM] | IC50 (MOZ-KAT6A [2]) [µM] | IC50 (TIP60-KAT5 [3]) [µM] | IC50 (TIP60-KAT5 [4]) [µM] | IC50 (HBO-KAT7 [5]) [µM] | IC50 (HBO-KAT7 [6]) [µM] | Structure (SMILES) |
| --- | --- | --- | --- | --- | --- | --- |
| – | > 125 | – | > 125 | – | – | O=C(NCCc1cccc(F)c1)C1=Nc2ccccc2S(=O)(=O)N1 [Example 61] |
| – | > 125 | – | > 125 | – | – | COc1cccc(CCNC(=O)C2=Nc3ccccc3S(=O)(=O)N2)c1 [Example 62] |
| – | > 125 | – | > 125 | – | – | O=C(NCCc1ccccc1F)C1=Nc2ccccc2S(=O)(=O)N1 [Example 63] |
| – | 102 | – | 92.1 | – | – | COc1ccccc1CCNC(=O)C1=Nc2ccccc2S(=O)(=O)N1 [Example 64] |
| – | 53.9 | – | 85.4 | – | – | O=C(NCCc1ccccc1C(F)(F)F)C1=Nc2ccccc2S(=O)(=O)N1 [Example 65] |
| – | > 125 | – | > 125 | – | – | O=C(NCCc1ccc(F)cc1)C1=Nc2ccccc2S(=O)(=O)N1 [Example 66] |
| – | > 125 | – | > 125 | – | – | Cc1ccc(CCNC(=O)C2=Nc3ccccc3S(=O)(=O)N2)cc1 [Example 67] |
| – | > 125 | – | > 125 | – | – | O=C(NCCc1ccc(Cl)cc1)C1=Nc2ccccc2S(=O)(=O)N1 [Example 69] |
| – | > 125 | – | > 125 | – | – | O=C(NCCc1cccnc1)C1=Nc2ccccc2S(=O)(=O)N1 [Example 70] |
| – | 67.5 | – | > 125 | – | – | COC(CNC(=O)C1=Nc2ccccc2S(=O)(=O)N1)c1ccccc1 (stereo not drawn) [Example 74] |
| – | > 125 | – | > 125 | – | – | O=C(NCC(O)c1ccccc1)C1=Nc2ccccc2S(=O)(=O)N1 (stereo not drawn) [Example 76] |
| – | 35.5 | – | 87 | – | – | O=C(NCC(Oc1ccccc1)c1ccccc1)C1=Nc2ccccc2S(=O)(=O)N1 (stereo not drawn) [Example 77] |
| 0.552 | 1.61 | 6.65 | 4.9 | – | 4.6 | O=C(NCCc1ccccc1F)C1=Nc2ccc(Br)cc2S(=O)(=O)N1 [Example 81] |
| – | 2.61 | – | 7.38 | – | – | N#Cc1ccccc1CCNC(=O)C1=Nc2ccc(Br)cc2S(=O)(=O)N1 [Example 83] |
| – | 8.1 | – | 5.97 | – | – | O=C(NCC(c1ccccc1)c1cc2ccccc2[nH]1)C1=Nc2ccc(Br)cc2S(=O)(=O)N1 (stereo not drawn) [Example 85] |
| – | – | – | 61.2 | 34.7 | – | O=C(NCC(O)c1ccc(F)cc1)C1=Nc2ccc(I)cc2S(=O)(=O)N1 (stereo not drawn) [Example 127] |
| – | – | – | > 125 | > 125 | – | O=C(NCC(O)c1cccc(C(F)(F)F)c1)C1=Nc2ccc(I)cc2S(=O)(=O)N1 (stereo not drawn) [Example 128] |
| – | 62.3 | – | > 125 | – | – | CCNC(=O)C(CNC(=O)C1=Nc2ccccc2S(=O)(=O)N1)c1ccccc1 (stereo not drawn) [Example 131] |
| – | > 125 | – | > 125 | – | – | O=C(NCC(C(=O)N1CCCCC1)c1ccccc1)C1=Nc2ccccc2S(=O)(=O)N1 (stereo not drawn) [Example 133] |
| – | > 125 | – | > 125 | – | – | O=C(NCC(C(=O)O)c1ccccc1)C1=Nc2ccccc2S(=O)(=O)N1 (stereo not drawn) [Example 154, 3-(1,1-Dioxido-2H-benzo[e][1,2,4]thiadiazine-3-carboxamido)-2-phenylpropanoic Acid] |

From patent US20210380548A1, “Fused [1,2,4]Thiadiazine Derivatives Which Act as KAT Inhibitors of the MYST Family” (CTxT Pty Limited, priority 2017, published 2021)
